Laboratory results as given in US20250205186A1, “USE OF CHLOROGENIC ACID IN PREPARING MEDICINE OR PHARMACEUTICAL COMPOSITION FOR PREVENTING OR TREATING PAIN” (SICHUAN JIUZHANG BIOLOGICAL SCIENCE AND TECHNOLOGY CO., LTD., priority 2019, published 2025).

Experiments:
TNF-α = assay: Serum TNF-α content by ELISA in bone cancer pain rats; assay type: in vivo, rat; conditions: for Cytokines TNF-α content in serum: after 15 days of administration; for Serum level of TNF-α compared with the model-negative group: after 15 days
Protocol: 60 SD rats were randomly selected, and after anesthesia, a small 1 cm incision was made in the upper tibial skin. A 10 mL syringe needle was used to puncture and perforate, then a 10 μL syringe was inserted into the bone marrow cavity, and 3 μL cell suspension containing 3×10^3 Walker rat breast cancer cells was slowly injected. The pinhole was sealed with bone wax, and the skin was sutured. After surgery, the rats were placed on a 37° C. hot plate for rewarming. After recovery, rats were returned to the cage for further breeding, to obtain the model group. In addition, 8 SD rats were randomly selected, and an equal volume of PBS solution was injected into the marrow cavity of the left upper tibia. The rest of the operations were the same as the model group, to obtain the sham operation group. The rats that had been successfully modeled were randomly divided into groups, eight rats for each group, that included high-dose chlorogenic acid group (80 mg/kg), middle-dose chlorogenic acid group (40 mg/kg), low-dose chlorogenic acid group (20 mg/kg), model negative group (N.S normal saline), and sham operation group (N.S normal saline). The rats were intraperitoneally injected with drugs for 15 days in a volume of 0.2 mL/10 g, once a day; the model-negative group and the sham operation group were given the same volume of normal saline. After the last administration, blood was collected from the eyeballs of the rats, and the animals in each group were sacrificed by neck removal. The blood samples were allowed to stand at room temperature for 20 minutes and then centrifuged. The supernatant was collected and the contents of TNF-α, IL-1β, and IL-6 in the peripheral blood serum of the […] were determined by ELISA.

[1] = test system: bone cancer pain in rats (Walker rat breast cancer cells, tibia implant model); assay: Mechanical pain hypersensitivity (paw withdrawal threshold) in rat tibia implant bone cancer pain model; assay type: in vivo; conditions: for Paw withdrawal threshold compared with the model group: from 5-7 days after administration, p<0.05
Protocol: After two SD female rats were intraperitoneally injected with 0.5 mL cancer cells (4×10^4 cells/μL), ascites was collected on the 7th day, and the cells are rinsed 3 times with sterile 0.01 mol/L PBS to adjust to the concentration of 4×10^3 cells/μL for use. 60 SD rats were randomly selected, and after anesthesia, a small 1 cm incision was made in the upper tibial skin. A 10 mL syringe needle was used to puncture and perforate, then a 10 μL syringe was inserted into the bone marrow cavity, and 3 μL cell suspension containing […] Walker rat breast cancer cells was slowly injected. The pinhole was sealed with bone wax, and the skin was sutured. After surgery, the rats were placed on a 37° C. hot plate for rewarming. After recovery, rats were returned to the cage for further breeding, to obtain the model group. In addition, 8 SD rats were randomly selected, and an equal volume of PBS solution was injected into the marrow cavity of the left upper tibia. The rest of the operations were the same as the model group, to obtain the sham operation group. Mechanical pain hypersensitivity: continuous pain measurement was performed from the 10th day after the operation, the contact stimulator's fine fibers were allowed to touch with the middle of the affected side of the rat's plantar, and the force can be increased up to 80 g within 5 seconds. The rat's paw withdrawal respond was observed, and the paw withdrawal threshold was recorded. Each animal was tested 5 times, with an interval of 5 min between two tests. […] The rats that had been successfully modeled were randomly divided into groups, eight rats for each group, that included high-dose chlorogenic acid group (80 mg/kg), middle-dose chlorogenic acid group (40 mg/kg), low-dose chlorogenic acid group (20 mg/kg), model negative group (N.S normal saline), and sham operation group (N.S normal saline). The rats were intraperitoneally injected with drugs for 15 days in a volume of 0.2 mL/10 g, once a day; the model-negative group and the sham operation group were given the same volume of normal saline. From the second day after administration, the mechanical pain hypersensitivity and radiation thermal pain were investigated before each administration, and the paw withdrawal threshold and the pain threshold were recorded.

Compound: O=C(/C=C/c1ccc(O)c(O)c1)O[C@@H]1C[C@](O)(C(=O)O)C[C@@H](O)[C@H]1O [Chlorogenic acid]
- Cytokines TNF-α content in serum (TNF-α; 20 mg/kg ip once a day): 39.74 ± 6.04 ng/L
- Serum level of TNF-α compared with the model-negative group (TNF-α; 20 mg/kg, p<0.05): lower than those in the model-negative group
- Cytokines TNF-α content in serum (TNF-α; 40 mg/kg ip once a day): 35.25 ± 4.62 ng/L
- Serum level of TNF-α compared with the model-negative group (TNF-α; 40 mg/kg, p<0.05): lower than those in the model-negative group
- Cytokines TNF-α content in serum (TNF-α; 80 mg/kg ip once a day): 54.48 ± 5.99 ng/L
- Serum level of TNF-α compared with the model-negative group (TNF-α; 80 mg/kg): the difference was not significant
- Paw withdraw threshold ([1]; 20 mg/kg ip once a day, 2 d): 16.46 g
- Paw withdraw threshold ([1]; 20 mg/kg ip once a day, 3 d): 22.32 g
- Paw withdraw threshold ([1]; 20 mg/kg ip once a day, 4 d): 26.14 g
- Paw withdraw threshold ([1]; 20 mg/kg ip once a day, 5 d): 24.86 g
- Paw withdraw threshold ([1]; 20 mg/kg ip once a day, 6 d): 31.21 g
- Paw withdraw threshold ([1]; 20 mg/kg ip once a day, 7 d): 37.06 g
- Paw withdraw threshold ([1]; 20 mg/kg ip once a day, 8 d): 35.11 g
- Paw withdraw threshold ([1]; 20 mg/kg ip once a day, 9 d): 38.48 g
- Paw withdraw threshold ([1]; 20 mg/kg ip once a day, 10 d): 37.23 g
- Paw withdraw threshold ([1]; 20 mg/kg ip once a day, 11 d): 34.22 g
- Paw withdraw threshold ([1]; 20 mg/kg ip once a day, 12 d): 36.74 g
- Paw withdraw threshold ([1]; 20 mg/kg ip once a day, 13 d): 33.02 g
- Paw withdraw threshold ([1]; 20 mg/kg ip once a day, 14 d): 35.43 g
- Paw withdraw threshold ([1]; 20 mg/kg ip once a day, 15 d): 36.52 g
- Paw withdrawal threshold compared with the model group ([1]; 20 mg/kg): significant difference
- Paw withdraw threshold ([1]; 40 mg/kg ip once a day, 2 d): 18.53 g
- Paw withdraw threshold ([1]; 40 mg/kg ip once a day, 3 d): 24.94 g
- Paw withdraw threshold ([1]; 40 mg/kg ip once a day, 4 d): 36.37 g
- Paw withdraw threshold ([1]; 40 mg/kg ip once a day, 5 d): 42.83 g
- Paw withdraw threshold ([1]; 40 mg/kg ip once a day, 6 d): 43.59 g
- Paw withdraw threshold ([1]; 40 mg/kg ip once a day, 7 d): 45.85 g
- Paw withdraw threshold ([1]; 40 mg/kg ip once a day, 8 d): 50.41 g
- Paw withdraw threshold ([1]; 40 mg/kg ip once a day, 9 d): 46.49 g
- Paw withdraw threshold ([1]; 40 mg/kg ip once a day, 10 d): 48.77 g
- Paw withdraw threshold ([1]; 40 mg/kg ip once a day, 11 d): 44.59 g
- Paw withdraw threshold ([1]; 40 mg/kg ip once a day, 12 d): 50.52 g
- Paw withdraw threshold ([1]; 40 mg/kg ip once a day, 13 d): 43.72 g
- Paw withdraw threshold ([1]; 40 mg/kg ip once a day, 14 d): 48.73 g
- Paw withdraw threshold ([1]; 40 mg/kg ip once a day, 15 d): 46.51 g
- Paw withdrawal threshold compared with the model group ([1]; 40 mg/kg): significant difference
- Paw withdraw threshold ([1]; 80 mg/kg ip once a day, 2 d): 20.58 g
- Paw withdraw threshold ([1]; 80 mg/kg ip once a day, 3 d): 18.59 g
- Paw withdraw threshold ([1]; 80 mg/kg ip once a day, 4 d): 24.41 g
- Paw withdraw threshold ([1]; 80 mg/kg ip once a day, 5 d): 24.39 g
- Paw withdraw threshold ([1]; 80 mg/kg ip once a day, 6 d): 26.53 g
- Paw withdraw threshold ([1]; 80 mg/kg ip once a day, 7 d): 26.07 g
- Paw withdraw threshold ([1]; 80 mg/kg ip once a day, 8 d): 24.52 g
- Paw withdraw threshold ([1]; 80 mg/kg ip once a day, 9 d): 26.11 g
- Paw withdraw threshold ([1]; 80 mg/kg ip once a day, 10 d): 23.21 g
- Paw withdraw threshold ([1]; 80 mg/kg ip once a day, 11 d): 25.42 g
- Paw withdraw threshold ([1]; 80 mg/kg ip once a day, 12 d): 22.63 g
- Paw withdraw threshold ([1]; 80 mg/kg ip once a day, 13 d): 25.79 g
- Paw withdraw threshold ([1]; 80 mg/kg ip once a day, 14 d): 23.25 g
- Paw withdraw threshold ([1]; 80 mg/kg ip once a day, 15 d): 24.83 g
- Mechanical paw withdrawal threshold compared with the model group ([1]; 80 mg/kg, p>0.05): not statistically significant
